Measurements as given in patent US6156790A, “C-10 carbon-substituted artemisinin-like trioxane compounds having antimalarial, antiproliferative and antitumor activities” (priority 1997, dated 2000).
pIC50: −log10 of the molar value.

What was measured:
786-0 = assay: cells; assay type: cell-based; details: Homo sapiens; for IC (TGI): read-out: Log10 TGI (converted)
SF-268 = assay: NCI 60 cell line screen (SRB), CNS cancer; assay type: cell-based; details: Homo sapiens; for GI50: read-out: Log10 GI50 (converted)
MCF7/ADR-RES = assay: cells; assay type: cell-based; details: Homo sapiens; for GI50: read-out: Log10 GI50 (converted)
HCC-2998 = assay: NCI 60 cell line screen (SRB), colon cancer; assay type: cell-based; details: Homo sapiens
LOX IMVI = assay: cells; assay type: cell-based; details: Homo sapiens; for CC50: read-out: Log10 LC50 (converted); for IC (TGI): read-out: Log10 TGI (converted)
CCRF-CEM = assay: NCI 60 cell line screen (SRB), leukemia; assay type: cell-based; details: Homo sapiens; for IC (TGI): read-out: Log10 TGI (converted)
SF-539 = assay: cells; assay type: cell-based; details: Homo sapiens; for GI50: read-out: Log10 GI50 (converted); for IC (TGI): read-out: Log10 TGI (converted)
K-562 = assay: cells; assay type: cell-based; details: Homo sapiens, K562, K-562; for GI50: read-out: Log10 GI50 (converted)
SK-MEL-28 = assay: cells; assay type: cell-based; details: Homo sapiens
NCI-H522 = assay: cells; assay type: cell-based; details: Homo sapiens; for IC (TGI): read-out: Log10 TGI (converted)
MDA-MB-435 = assay: cells; assay type: cell-based; details: Homo sapiens; for IC (TGI): read-out: Log10 TGI (converted)
[1] = stability of pyranosyl fluorides; assay type: physicochemical; details: after purification
Source text: Coupling of either the α-fluoride or the β-fluoride VI with trimethylaluminum in the presence of boron trifluoride-etherate gave 10β-methyl derivative VII where n=1 and R=CH3 with almost complete stereoselectivity, thereby implicating a common oxygen-stabilized C-10 carbocation intermediate. The relative stereochemistry at carbons 9 and 10 was established by the characteristic ^1 H NMR chemical shifts and coupling constants of the methine hydrogen atoms at these positions (J9,10 =10-11 Hz for trans and J9,10 =5.6-6.7 Hz for cis). […] Several dimethyl aluminum acetylides, prepared from Me2 AlCl and the corresponding lithium acetylides, coupled smoothly to form exclusively the 10β-acetylenic derivatives. Di- and tri-methoxylated benzenes and heteroaromatic N-methylpyrrole and furan coupled to produce exclusively, in stereochemical contrast, the 10α-oriented derivatives. Apparently, relatively small nucleophiles approach the intermediate cation from the β-face of the molecule, whereas relatively large aryl and heteroaryl nucleophiles approach from the α-face (i.e. directed by and trans to the C-9 methyl group). Coupling of pyranosyl fluoride VI with N-methylpyrrole proceeded equally well on 400 mg scale as on 20 mg scale, and larger scale executions of this and of the other coupling reactions reported here are not expected to be a problem.

CAKI-1 = assay: NCI 60 cell line screen (SRB), renal cancer; details: Homo sapiens; for CC50: CAKI-1, read-out: Log10 LC50 (converted)
OVCAR-5 = assay: NCI 60 cell line screen (SRB), ovarian cancer; assay type: cell-based; details: Homo sapiens; for CC50: read-out: Log10 LC50 (converted); for IC (TGI): read-out: Log10 TGI (converted)
UACC-62 = assay: cells; assay type: cell-based; details: Homo sapiens; for CC50: read-out: Log10 LC50 (converted)
[2] = test system: P. vivax and P. falciparum; details: cited from earlier work
60 cell line panel = details: cell line panels of 60 lines; cited from earlier work
MALME-3M = assay: cells; assay type: cell-based; details: Homo sapiens; for IC (TGI): read-out: Log10 TGI (converted)
SN12C = assay: cells; assay type: cell-based; details: Homo sapiens; for GI50: read-out: Log10 GI50 (converted); for CC50: read-out: Log10 LC50 (converted)
[3] = test system: chloroquine-sensitive P. falciparum (NF54); assay: In vitro antimalarial activity ([3H]hypoxanthine incorporation); assay type: cell-based
Protocol: Activity was determined by measuring the incorporation of [^3 H]hypoxanthine, by the methods of Desjardins and Milhouse, with the following modofications, see […].; Haynes, […]. Antimicrob. Agents Chemother., 16:710 (1979); Milhous, W. K.; Weatherly, […].; Antimicrob. Agents Chemother., 27: 525 (1985). […] Parasitemia was maintained at 0.05-3% and doubling time at approximately 15 hours by twice weekly change of medium and replenishment with fresh erythrocytes. […] Sigma-Aldrich #27,043-1). DMSO solutions were diluted 500-fold in medium, serially diluted in 0.2% DMSO in medium (to maintain constant solvent concentration), then 100 μL aliquots were pipetted into microtiter plate wells (Costar 3595). […] Plates included at least 8 wells of no drug controls (4 with and 4 without DMSO) and 4 wells of uninfected erythrocytes. […] Cells were harvested (Brandel MB-48R) onto GF-C glass filters (Brandel). The filters were washed five times with 3 mL water per sample spot, dried under a heat lamp, and counted (Beckman Model LS-6500) in scintillation cocktail (ICN Cytoscint). Decays per minute (dpm) values were downloaded and analyzed (Power MFacintosh 7200/90; Microsoft Excel 5.0), to yield the mean and standard deviation at each drug concentration.

P388 leukemia = details: NCI Report on NSC 369397; cited from earlier work
COLO 205 = assay: NCI 60 cell line screen (SRB), colon cancer; assay type: cell-based; details: Homo sapiens; for CC50: read-out: Log10 LC50 (converted); for IC (TGI): read-out: Log10 TGI (converted)
SF-295 = assay: cells; assay type: cell-based; details: Homo sapiens
OVCAR-4 = assay: NCI 60 cell line screen (SRB), ovarian cancer; assay type: cell-based; details: Homo sapiens, read-out: Log10 GI50 (converted)
[4] = read-out: Log10 GI50 (converted)
[5] = read-out: Log10 TGI (converted)
[6] = read-out: Log10 LC50 (converted)

| Compound | IC (TGI) (786-0) [µM] | GI50 (SF-268) [µM] | GI50 (MCF7/ADR-RES) [µM] | CC50 (LOX IMVI) [µM] | IC (TGI) (LOX IMVI) [µM] | IC (TGI) (CCRF-CEM) [µM] | GI50 (SF-539) [µM] | IC (TGI) (SF-539) [µM] | GI50 (K-562) [µM] | IC (TGI) (NCI-H522) [µM] | IC (TGI) (MDA-MB-435) [µM] | CC50 (CAKI-1) [µM] | CC50 (OVCAR-5) [µM] | IC (TGI) (OVCAR-5) [µM] | CC50 (UACC-62) [µM] | IC (TGI) (MALME-3M) [µM] | GI50 (SN12C) [µM] | CC50 (SN12C) [µM] | CC50 (COLO 205) [µM] | IC (TGI) (COLO 205) [µM] | further results |
| --- | --- | --- | --- | --- | --- | --- | --- | --- | --- | --- | --- | --- | --- | --- | --- | --- | --- | --- | --- | --- | --- |
| C[C@H]1[C@@H](F)O[C@@H]2O[C@@]3(C)CC[C@H]4[C@H](C)CC[C@@H]1[C@@]24OO3 [Compound VI, 10β-Fluorodeoxoartemisinin] | 14.8 | 13.8 | 3.55 | 31.6 | 275 | 53.7 | 14.1 | 40.7 | 0.316 | 16.6 | 7.24 | 47.9 | – | – | – | – | – | – | – | – | GI50 (786-0; [4]): 1.55 µM; GI50 (HCC-2998; [4]): 14.5 µM; IC (TGI) (HCC-2998; [5]): 12.9 µM; GI50 (LOX IMVI; [4]): 0.355 µM; GI50 (CCRF-CEM; CCRP-CEM, read-out: Log10 GI50 (converted)): 0.562 µM; IC (TGI) (K-562; [5]): 12.6 µM; GI50 (SK-MEL-28; [4]): 17.8 µM; GI50 (NCI-H522; [4]): 0.851 µM; CC50 (NCI-H522; [6]): 64.6 µM; GI50 (MDA-MB-435; [4]): 0.692 µM; CC50 (MDA-MB-435; [6]): 34.7 µM; stability of solid [1]: stable crystalline solid; GI50 (CAKI-1; CAKI-1, read-out: Log10 GI50 (converted)): 724 µM |
| C[C@@H]1CC[C@H]2[C@@H](C)C(=O)O[C@@H]3O[C@@]4(C)CC[C@@H]1[C@]32OO4 [Artemisinin] | – | – | – | – | – | – | – | – | 46.8 | – | – | – | > 100 | > 100 | > 100 | 87.1 | 61.7 | > 100 | > 100 | > 100 | clinical cure ([2]; 2099 cases, P. vivax and P. falciparum about 3:1): clinical cure of all patients; suppression of parasitemias ([2]; P. vivax and P. falciparum): effective at suppressing the parasitemias; anticancer activity (60 cell line panel): very little anticancer activity; CC50 (MALME-3M; [6]): > 100 µM; CC50 (K-562; [6]): > 100 µM; CC50 (SK-MEL-28; [6]): > 100 µM; IC (TGI) (SK-MEL-28; read-out: Log10 TGI): > 100 µM; pIC50 ([3]; Plasmodium falciparum, NF54): 8.00; activity against P388 leukemia (P388 leukemia): inactive |
| C[C@H]1[C@@H](CC(=O)c2ccc(C(=O)C[C@H]3O[C@@H]4O[C@@]5(C)CC[C@H]6[C@H](C)CC[C@@H]([C@H]3C)[C@@]46OO5)cc2)O[C@@H]2O[C@@]3(C)CC[C@H]4[C@H](C)CC[C@@H]1[C@@]24OO3 [Dimer 21] | 14.8 | 0.0631 | 0.0105 | 49 | 12 | 45700 | 0.0166 | 14.5 | – | 28.2 | 25.1 | 27.5 | 60.3 | 14.5 | 95.5 | 28.2 | 0.0105 | 85.1 | 0.0759 | 0.0407 | IC (TGI) (SF-268; [5]): 79.4 µM; CC50 (MCF7/ADR-RES; [6]): 79.4 µM; IC (TGI) (MCF7/ADR-RES; [5]): 14.1 µM; GI50 (UACC-62; [4]): 0.0724 µM; IC (TGI) (UACC-62; [5]): 27.5 µM; CC50 (SF-539; [6]): 38 µM; GI50 (MALME-3M; [4]): 0.0468 µM; IC (TGI) (SN12C; [5]): 12.3 µM; IC50 compared with artemisinin ([3]; in words): lower than that of artemisinin; GI50 (SF-295; [4]): 4.79 µM; CC50 (SF-295; [6]): 77.6 µM; IC (TGI) (SF-295; [5]): 25.1 µM; IC (TGI) (CAKI-1; CAKI-1, read-out: Log10 TGI): 0.0891 µM; GI50 (OVCAR-4): 1.58 µM |
